Here are results for one molecule from patent publication US7709636B2, “Pyrazole sulfonylurea compound and herbicide” (Nissan Chemical Industries, Ltd., priority 2004, dated 2010).

For data set [1], the system named is Echinochloa crus-galli. As to the kind of experiment: Herbicidal effect test in submerged condition by treatment before weed-generation (1). It is filed as in vivo. The conditions noted are these: 0.64 g/a, water surface treated on day of sowing, 3 weeks after treatment. The procedure, abridged: (§1)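 Steps: flood alluvial soil to 4 cm; sow weed seeds; transplant 2.5-leaf rice seedlings; same day treat water surface with water-diluted wettable powder at set formulation amount; keep in greenhouse at 25 to 30° C; score injury on 0–5 scale at 3 weeks.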

For data set [2], the system named is Monochoria vaginalis. Described as above. In kind it is in vivo. Particulars: 0.64 g/a, water surface treated on day of sowing, 3 weeks after treatment. The procedure, abridged:
as §1

For data set [3], the system named is Scirpus juncoides. The data set is described as above. In kind it is in vivo. Particulars: 0.64 g/a, water surface treated on day of sowing, 3 weeks after treatment. An outline of the steps:
as §1

Data set [4] deals with Echinochloa crus-galli. Put plainly: Herbicidal effect test in submerged condition by treatment during weed-growth stage (1). In kind it is in vivo. The conditions noted are these: 0.64 g/a, treated at 1st to 2nd leaf stage, 3 weeks after treatment. An outline of the steps: (§2)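 Paddy-soil pots flooded to 4 cm water depth were sown and grown in a greenhouse at 25 to 30° C until weeds reached 1st to 2nd leaf stage. A wettable powder diluted in water to a predetermined formulation amount was applied to the water surface. Herbicidal effect was scored 3 weeks after treatment against set criteria.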

For data set [5], the system named is Monochoria vaginalis. The description is as above. It is filed as in vivo. The conditions noted are these: 0.64 g/a, treated at 1st to 2nd leaf stage, 3 weeks after treatment. The procedure, abridged:
as §2

Data set [6] concerns Scirpus juncoides. The description is as above. The conditions noted are these: 0.64 g/a, treated at 1st to 2nd leaf stage, 3 weeks after treatment. It is filed as in vivo. The procedure, abridged:
as §2

Data set [7] has as its system Echinochloa crus-galli. Put plainly: Herbicidal effect test in submerged condition by treatment before weed-generation (2). In kind it is in vivo. The conditions noted are these: 0.3 g/a; submerged paddy soil pot, water surface treated on day of sowing; 3 weeks after treatment. How it is done:
(§3) Herbicidal Effect Test in Submerged Condition by Treatment Before Weed-Generation (2)
(§4) Paddy surface soil was placed in a plastic pot of 1/10000 are, water was poured therein and mixed. After seeds of Scirpus juncoides were sown, paddy surface soil was added by 2 cm, and submerged with water, and then seeds of Echinochloa crus-galli, Scirpus juncoides, Monochoria vaginalis, Rotala indica and Lindernia pyxidaria were sown together. In addition, rice seedlings at 2.5th leaf stage were transplanted, and fixed to the paddy surface in a state where the roots were exposed on the other side. On the day when the seeds were sown, the wettable powder of the present invention prepared according to Formulation Example 1 was diluted with water so as to give a predetermined formulation amount, and the surface of the water was treated with the diluted wettable powder. The plants were grown by putting the pot in a green house at 25 to 30° C. The herbicidal effect for each plant was investigated 3 weeks after treatment with the herbicide according to the criteria indicated in Test Example 1.

In the next data set the test system is Lindernia pyxidaria. Described as above. In kind it is in vivo. The conditions noted are these: 0.3 g/a; submerged paddy soil pot, water surface treated on day of sowing; 3 weeks after treatment. How it is done:
as §3, §4

For data set [8], the system named is Monochoria vaginalis. The data set is described as above. The conditions noted are these: 0.3 g/a; submerged paddy soil pot, water surface treated on day of sowing; 3 weeks after treatment. It is filed as in vivo. How it is done:
as §3, §4

The next data set concerns Rotala indica. The description is as above. It is filed as in vivo. Particulars: 0.3 g/a; submerged paddy soil pot, water surface treated on day of sowing; 3 weeks after treatment. Here is the method:
as §3, §4

The subject of data set [9] is Scirpus juncoides. The description is as above. It is filed as in vivo. Particulars: 0.3 g/a; submerged paddy soil pot, water surface treated on day of sowing; 3 weeks after treatment. Here is the method:
as §3, §4

In data set [10] the test system is transplanted rice (Oryza sativa). The data set is described as above. It is filed as in vivo. The conditions noted are these: 0.3 g/a; submerged paddy soil pot, rice seedlings at 2.5th leaf stage transplanted; 3 weeks after treatment. Here is the method: as §3, §4
For data set [11], the system named is rice transplanted at a depth of 0 cm. The data set is described as above. It is filed as in vivo, Oryza sativa. Particulars: 0.3 g/a; submerged paddy soil pot, seedlings fixed to paddy surface with roots exposed; 3 weeks after treatment. How it is done: as §3, §4
Data set [12] relates to transplanted rice (Oryza sativa). As to the kind of experiment: Crop injury test on rice in water leakage condition. It is filed as in vivo. The conditions noted are these: 0.15 g/a; water leakage 2 cm/day x 3 days; treated on third day after transplantation; 3 weeks after treatment. How it is done:
Crop Injury Test on Rice in Water Leakage Condition A mixed soil of alluvial soil and diluvial soil was placed in a plastic pot perforated at the bottom of 1/10000 are, water was poured therein and mixed, and then rice seedlings at 2.5th leaf stage were transplanted. Water leakage treatment was carried out by placing the pot in a plastic vat, and controlling the amount of water in the vat kept at a condition of 2 cm/day×3 days. The pot was put in a green house at 25 to 30° C., on third day after transplantation, the wettable powder of the present invention prepared according to Formulation Example 1 was diluted with water so as to give a predetermined formulation amount, and the surface of the water was treated with the diluted wettable powder. The crop injury on rice was investigated 3 weeks after treatment with the herbicide according to the criteria indicated in Test Example 1.

With `COc1cc(OC)nc(NC(=O)NS(=O)(=O)c2c(C3=NOCCO3)c(Cl)nn2C)n1` [Comparative Compound 1], the “herbicidal effect, A: Echinochloa crus-galli” value in the data set with Echinochloa crus-galli [1], in the data set with Echinochloa crus-galli [4] and in the data set with Echinochloa crus-galli [7] was 5 (Herbicidal rate 90% or more (almost complete death)) throughout. The “herbicidal effect, C: Monochoria vaginalis” value with Monochoria vaginalis [2], in the data set with Monochoria vaginalis [5] and with Monochoria vaginalis [8] was 5 (Herbicidal rate 90% or more (almost complete death)) in each case. Also, the “herbicidal effect, B: Scirpus juncoides” value with Scirpus juncoides [3], with Scirpus juncoides [6] and in the data set with Scirpus juncoides [9] was 5 (Herbicidal rate 90% or more (almost complete death)) throughout. Also, the “herbicidal effect, O: Lindernia pyxidaria” value in the data set with Lindernia pyxidaria is 5 (Herbicidal rate 90% or more (almost complete death)). Besides, in the data set on Rotala indica, the “herbicidal effect, N: Rotala indica” value is given as 5 (Herbicidal rate 90% or more (almost complete death)). Moreover, the “herbicidal effect, a: transplanted rice (Oryza sativa)” value in data set [10] is recorded as 0 (Herbicidal rate 5% or less (little effect)). Further, in data set [11], the “herbicidal effect, g: rice transplanted at a depth of 0 cm” value is 3 (Herbicidal rate 40% or more and less than 70%). The “crop injury on rice, a: transplanted rice (Oryza sativa)” value in data set [12] was 3 (Herbicidal rate 40% or more and less than 70%).
